Reference: patent US20110112101A1, “TREATMENT FOR OCULAR-RELATED DISORDERS” (SANOFI-AVENTIS, priority 2009, published 2011)

Tested on: laser induced plaque on the retina (model of wet AMD)
Assay: laser induced model of macular degeneration in the rat
Assay type: in vivo
Conditions: for % Inhibition of Plaque: krypton laser injury of retina
Protocol: Several models of wet AMD are available in the rodent and rabbit. The pre-clinical efficacy of the compound of Formula I was assessed in a laser induced model of macular degeneration in the rat. In this model, injury is induced on the retina of the rat by a focused laser beam. This injury results in vascularization and inflammation, and the subsequent formation of a plaque on the retina that is associated with loss of vision. The ability of treatments with a compound of Formula Ito inhibit the size and thickness of such plaques serves as an indicator for the potential for the treatment of wet AMD patients. A krypton laser was used to irradiate the retina of a rat eye at 75 microns for 0.1 seconds, at each of 3-4 spots. From days 1 to 14, the irradiated rats were dosed twice a day with the compound of Formula I perorally (bid PO). Doses used were 3 mg/kg, 10 mg/kg, and 30 mg/kg body weight. An additional treatment group was given the vehicle for the oral compound, also bid PO administration. A positive control was used with 0.5 mg triamcinolone delivered to the intraocular subtendon. At 14 days after such irradiation, the rat was perfused with FITC-dextran (fluorescein isothiocyanate dextran) and the eyes were removed for evaluation. Evaluation was by fundoscopy and fluorescein angiography.

SMILES	% Inhibition of Plaque (positive control 0.5 mg delivered to the intraocular subtendon, evaluated at 14 days)	% Inhibition of Plaque (3 mg/kg bid PO days 1 to 14, evaluated at 14 days)	% Inhibition of Plaque (10 mg/kg bid PO days 1 to 14, evaluated at 14 days)	% Inhibition of Plaque (30 mg/kg bid PO days 1 to 14, evaluated at 14 days)	plaque thickness (laser induced model, 30 and 10 mg/kg bid PO)	results compared with positive control triamcinolone (laser induced model, 30 and 10 mg/kg bid PO versus 0.5 mg triamcinolone)
C[C@]12C=CC(=O)C=C1CC[C@H]1[C@@H]3C[C@@H](O)[C@](O)(C(=O)CO)[C@@]3(C)C[C@H](O)[C@@]12F [triamcinolone, reference compound]	26%					
CCc1c(-c2ccc(C(C)(C)O)cc2)[nH]c2nccnc12 [compound of Formula I, 2-[4-(7-Ethyl-5H-pyrrolo[2,3-b]pyrazin-6-yl)-phenyl]-propan-2-ol]		12%	36%	33%	significantly reduced plaque thickness	significantly better
